ChEMBL document CHEMBL1909046, “DrugMatrix in vitro pharmacology data”

Columns and labels:
[1] = biological target: T1, Receptor-type tyrosine-protein phosphatase C (Homo sapiens, UniProt P08575); parameters: species or system Escherichia coli;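 further: inhibition of CD45 enzyme activity measured using DiFMUP as substrate; in other assays of this panel Not Active means under 50% inhibition at 10 µM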
T1 sequence (P08575 whole entry): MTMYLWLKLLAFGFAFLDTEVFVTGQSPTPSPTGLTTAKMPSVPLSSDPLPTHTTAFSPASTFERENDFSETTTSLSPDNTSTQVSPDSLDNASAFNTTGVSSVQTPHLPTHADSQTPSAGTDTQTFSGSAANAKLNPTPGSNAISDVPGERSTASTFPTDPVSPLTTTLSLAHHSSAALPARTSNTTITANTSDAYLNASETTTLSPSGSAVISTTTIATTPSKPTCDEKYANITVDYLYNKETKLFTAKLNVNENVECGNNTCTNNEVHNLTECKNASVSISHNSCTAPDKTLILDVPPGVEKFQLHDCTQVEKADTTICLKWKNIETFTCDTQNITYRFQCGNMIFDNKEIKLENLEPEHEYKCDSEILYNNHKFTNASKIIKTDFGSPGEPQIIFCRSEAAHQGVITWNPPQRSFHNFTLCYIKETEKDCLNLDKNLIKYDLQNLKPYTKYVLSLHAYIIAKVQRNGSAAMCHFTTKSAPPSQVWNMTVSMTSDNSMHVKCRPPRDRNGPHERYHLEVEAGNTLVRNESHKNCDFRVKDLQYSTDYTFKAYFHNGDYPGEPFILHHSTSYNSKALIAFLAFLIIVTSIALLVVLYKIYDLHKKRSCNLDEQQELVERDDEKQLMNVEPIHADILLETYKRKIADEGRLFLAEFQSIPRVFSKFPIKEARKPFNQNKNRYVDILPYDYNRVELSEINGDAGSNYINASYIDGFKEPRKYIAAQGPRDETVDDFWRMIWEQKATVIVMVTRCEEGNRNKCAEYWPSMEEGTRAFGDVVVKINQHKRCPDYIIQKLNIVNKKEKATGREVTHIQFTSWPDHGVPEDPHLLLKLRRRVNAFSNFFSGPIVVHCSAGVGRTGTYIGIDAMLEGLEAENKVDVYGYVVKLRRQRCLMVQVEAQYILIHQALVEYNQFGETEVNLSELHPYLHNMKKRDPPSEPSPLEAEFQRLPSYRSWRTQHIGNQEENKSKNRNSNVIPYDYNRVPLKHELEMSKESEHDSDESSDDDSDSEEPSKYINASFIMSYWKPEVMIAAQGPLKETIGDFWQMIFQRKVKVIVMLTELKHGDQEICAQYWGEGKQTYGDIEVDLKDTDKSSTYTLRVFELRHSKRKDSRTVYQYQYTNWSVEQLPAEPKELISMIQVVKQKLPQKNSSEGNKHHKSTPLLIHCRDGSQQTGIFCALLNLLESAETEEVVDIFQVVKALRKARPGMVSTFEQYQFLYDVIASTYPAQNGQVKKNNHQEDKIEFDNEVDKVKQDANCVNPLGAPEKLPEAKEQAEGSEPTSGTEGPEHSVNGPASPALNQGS

[2] = DRUGMATRIX: GABAA, Flunitrazepam, Central radioligand binding (ligand: [3H] Flunitrazepam); format: cell membranes, Rattus norvegicus, Wistar, Brain, Membrane; settings: Not Active = under 50% inhibition at 10 µM
[3] = biological target: T2, Type-2 angiotensin II receptor (Homo sapiens, UniProt P50052); format: cell-based; settings: cho-k1; further: in other assays of this panel Not Active means under 50% inhibition at 10 µM
T2 sequence (P50052 whole entry): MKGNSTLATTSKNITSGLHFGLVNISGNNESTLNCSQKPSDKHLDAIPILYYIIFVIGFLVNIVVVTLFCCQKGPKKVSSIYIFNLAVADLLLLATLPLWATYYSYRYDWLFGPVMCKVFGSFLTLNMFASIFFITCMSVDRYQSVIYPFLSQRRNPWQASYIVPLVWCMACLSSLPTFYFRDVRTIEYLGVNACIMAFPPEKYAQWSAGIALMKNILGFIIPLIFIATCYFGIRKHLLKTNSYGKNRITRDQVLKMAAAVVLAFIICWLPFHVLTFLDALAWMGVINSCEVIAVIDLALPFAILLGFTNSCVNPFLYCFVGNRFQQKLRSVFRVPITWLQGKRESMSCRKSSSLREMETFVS

[4] = DRUGMATRIX: Phosphodiesterase PDE3 enzyme inhibition (substrate: [3H]cAMP + cAMP); format: tissue-based, Homo sapiens; settings: platelet; Not Active = under 50% inhibition at 10 µM
[5] = biological target: T3, Alpha-2A adrenergic receptor (Homo sapiens, UniProt P08913); format: cell membranes, Sf9, Membrane; settings: sf9; further: in other assays of this panel Not Active means under 50% inhibition at 10 µM
T3 sequence (P08913 whole entry): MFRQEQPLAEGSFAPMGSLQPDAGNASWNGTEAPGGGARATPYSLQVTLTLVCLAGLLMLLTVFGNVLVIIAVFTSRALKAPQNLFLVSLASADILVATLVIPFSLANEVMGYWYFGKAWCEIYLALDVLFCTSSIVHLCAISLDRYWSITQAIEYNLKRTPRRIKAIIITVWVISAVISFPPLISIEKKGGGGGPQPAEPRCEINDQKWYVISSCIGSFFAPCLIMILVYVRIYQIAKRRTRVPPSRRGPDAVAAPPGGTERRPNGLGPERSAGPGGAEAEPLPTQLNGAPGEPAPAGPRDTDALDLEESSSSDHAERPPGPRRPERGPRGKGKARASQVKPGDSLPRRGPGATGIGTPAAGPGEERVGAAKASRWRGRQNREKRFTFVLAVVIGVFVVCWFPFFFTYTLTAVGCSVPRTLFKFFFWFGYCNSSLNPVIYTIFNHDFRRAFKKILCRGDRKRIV

[6] = biological target: Beta-3 adrenergic receptor (Homo sapiens, UniProt P13945); assay: DRUGMATRIX: Adrenergic beta3 radioligand binding (ligand: [125I] Cyanopindolol); format: cell membranes, HEK293, Membrane; settings: hek293; Not Active = under 50% inhibition at 10 µM
Beta-3 adrenergic receptor, sequence (P13945 whole entry): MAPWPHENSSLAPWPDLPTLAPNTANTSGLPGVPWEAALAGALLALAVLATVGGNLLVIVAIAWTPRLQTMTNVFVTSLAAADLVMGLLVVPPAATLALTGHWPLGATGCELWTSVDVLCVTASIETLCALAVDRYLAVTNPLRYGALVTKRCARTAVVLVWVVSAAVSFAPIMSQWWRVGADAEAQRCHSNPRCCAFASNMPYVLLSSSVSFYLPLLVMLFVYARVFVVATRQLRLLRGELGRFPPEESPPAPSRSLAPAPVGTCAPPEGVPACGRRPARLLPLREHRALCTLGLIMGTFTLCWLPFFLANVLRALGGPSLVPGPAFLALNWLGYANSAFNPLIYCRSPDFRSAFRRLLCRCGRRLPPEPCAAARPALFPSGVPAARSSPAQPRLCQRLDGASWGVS

Nn1nnc2ccccc21
Not Active: IC50 [1] | IC50 [2] | Ki [2] | IC50 [3] | IC50 [4] | Ki [4] | IC50 [5] | IC50 [6]

CC[C@]1(O)CC[C@H]2[C@@H]3CCC4=CCCC[C@@H]4[C@H]3CC[C@@]21C
Not Active: IC50 [1] | IC50 [2] | Ki [2] | IC50 [3] | IC50 [4] | Ki [4] | IC50 [5] | IC50 [6]

N[C@@H](Cc1ccc(F)cc1)C(=O)O
Not Active: IC50 [1] | IC50 [2] | Ki [2] | IC50 [3] | IC50 [4] | Ki [4] | IC50 [5] | IC50 [6]

CCOC(=O)[C@H](CCc1ccccc1)N[C@@H](C)C(=O)N1Cc2ccccc2C[C@H]1C(=O)O
Not Active: IC50 [1] | IC50 [2] | Ki [2] | IC50 [3] | IC50 [4] | Ki [4] | IC50 [5] | IC50 [6]

O=C(c1ccccc1Cl)N1CCC(Cc2ccccc2)CC1
Not Active: IC50 [1] | IC50 [2] | Ki [2] | IC50 [3] | IC50 [4] | Ki [4] | IC50 [5] | IC50 [6]

CCOC(=O)[C@H](CCc1ccccc1)N[C@@H](C)C(=O)N1CCC[C@H]1C(=O)O
Not Active: IC50 [1] | IC50 [2] | Ki [2] | IC50 [3] | IC50 [4] | Ki [4] | IC50 [5] | IC50 [6]

Clc1cc2c(cc1Cl)Oc1cc(Cl)c(Cl)cc1O2 [2,3,7,8-TETRACHLORODIBENZO-P-DIOXIN]
Not Active: IC50 [1] | IC50 [2] | Ki [2] | IC50 [3] | IC50 [4] | Ki [4] | IC50 [5] | IC50 [6]

C=C1/C(=C\C=C2/CCC[C@]3(C)[C@@H]([C@H](C)CCCC(C)C)CC[C@@H]23)C[C@@H](O)C[C@@H]1O [ALFACALCIDOL]
Not Active: IC50 [1] | IC50 [2] | Ki [2] | IC50 [3] | IC50 [4] | Ki [4] | IC50 [5] | IC50 [6]

CCCCCC[C@H]1C(=O)O[C@H](C)[C@H](NC(=O)c2cccc(NC=O)c2O)C(=O)O[C@@H](C)[C@@H]1OC(=O)CC(C)C [ANTIMYCIN A]
Not Active: IC50 [1] | IC50 [2] | Ki [2] | IC50 [3] | IC50 [4] | Ki [4] | IC50 [5] | IC50 [6]

C[C@@H]1CC[C@H]2[C@@H](C)C(=O)O[C@@H]3O[C@@]4(C)CC[C@@H]1[C@]32OO4 [ARTEMISININ]
Not Active: IC50 [1] | IC50 [2] | Ki [2] | IC50 [3] | IC50 [4] | Ki [4] | IC50 [5] | IC50 [6]

CO[C@H]1[C@@H](O)[C@H](N)[C@@H](O[C@H]2O[C@H]([C@H](C)N)CC[C@H]2N)[C@H](O)[C@@H]1N(C)C(=O)CN [ASTROMICIN]
Not Active: IC50 [1] | IC50 [2] | Ki [2] | IC50 [3] | IC50 [4] | Ki [4] | IC50 [5] | IC50 [6]

[N-]=[N+]=CC(=O)OC[C@H](N)C(=O)O [AZASERINE]
Not Active: IC50 [1] | IC50 [2] | Ki [2] | IC50 [3] | IC50 [4] | Ki [4] | IC50 [5] | IC50 [6]

CC(C)C[C@H]1C(=O)N2CCC[C@H]2[C@]2(O)O[C@](NC(=O)[C@@H]3C=C4c5cccc6[nH]c(Br)c(c56)C[C@H]4N(C)C3)(C(C)C)C(=O)N12 [BROMOCRIPTINE]
Not Active: IC50 [1] | IC50 [2] | Ki [2] | IC50 [3] | IC50 [4] | Ki [4] | IC50 [6]

CN1C[C@H](C(=O)N[C@]2(C)O[C@@]3(O)[C@@H]4CCCN4C(=O)[C@H](Cc4ccccc4)N3C2=O)C[C@@H]2c3cccc4[nH]cc(c34)C[C@H]21 [DIHYDROERGOTAMINE]
Not Active: IC50 [1] | IC50 [2] | Ki [2] | IC50 [3] | IC50 [4] | Ki [4] | IC50 [6]

Cc1cnc(C(=O)NCCc2ccc(S(=O)(=O)NC(=O)NC3CCCCC3)cc2)cn1 [GLIPIZIDE]
Not Active: IC50 [2] | Ki [2] | IC50 [3] | IC50 [4] | Ki [4] | IC50 [5] | IC50 [6]

N=C(N)N/N=C/c1c(Cl)cccc1Cl [GUANABENZ]
Not Active: IC50 [1] | IC50 [2] | Ki [2] | IC50 [3] | IC50 [4] | Ki [4] | IC50 [6]
